# Data from patent publication US20240197686A1, “ANTI-TUMORAL EFFECTIVE BENZIMIDAZOLE ZINC COMPLEXES” (INONU UNIVERSITESI REKTORLUGU, priority 2022, published 2024).
# Entries after “also recorded” stand apart in the source; their conditions may differ.
# Tests used:
# [1] = tested on: lung, liver, kidney tissues; experiment: Histology (H-E, light microscope) of lung, liver, kidney tissues of tumour developed nude rats; assay type: in vivo; settings: for Histopathological damage in lung, liver and kidney tissues (overall): rat, in vivo
# Description: After […] operation; lung, liver, kidney tissues were taken and 10% were fixed in formaldehyde, and the sections prepared after their histological tissue follow-up procedures were examined with a light microscope.
# Lung Cancer = settings: lung cancer treatment; cited from earlier work
smiles,measurement,setting,value
"N.N.[Cl][Pt][Cl] [Cisplatin, cis-diamminedichloroplatinum II]",Kidney histology,[1]; H-E sections,"narrowing in glomerular Bowman's space (arrow), tubule epithelial damage; also recorded: Glomerular collapse and vascular congestion"
same,Liver histology,[1]; H-E sections,"hemorage (aster) in parenchymal area, vascular congestion; also recorded: hemorrhagic fields and vascular congestion in parenchyma"
same,Lung histology,[1]; H-E sections,"Secretion (aster) in bronchiole lumen, vascular congestion; also recorded: Secretion accumulations and vascular congestion"
same,"Histopathological damage in lung, liver and kidney tissues (overall)",[1],caused tissue damages
same,"Histopathological damage in lung, liver and kidney tissues (overall)",[1]; listed as cisplatin,"causes histopathological damages in lung, liver and kidney tissues"
same,surviving,Lung Cancer,6 months
